# In US20080103198A1, “METHODS FOR TREATMENT OF COCHLEAR AND VESTIBULAR DISORDERS” (priority 2006, published 2008):
# How the values were obtained:
# Li-pilo induced SE = assay: Lithium-pilocarpine model (Example 1): Timm staining, mossy fiber sprouting; type: in vivo, rat
# Protocol: At 2 months after the onset of spontaneous recurrent seizures, mossy fiber sprouting was examined on rats in the chronic period exposed to the test compound or DZP and in 3 saline-saline rats. Animals were deeply anaesthetized and perfused transcardially with saline followed by 100 ml of 1.15% (w/v) Na2S in 0.1 M phosphate buffer, and 100 ml of 4% (v/v) formaldehyde in 0.1 M phosphate buffer. Brains were removed from skull, post-fixed in 4% formaldehyde during 3-5 h and 40 μm sections were cut on a sliding vibratome and mounted on gelatin-coated slides.
# The following day, sections were developed in the dark in a 26° C. solution of 50% (w/v) arabic gum (160 ml), sodium citrate buffer (30 ml), 5.7% (w/v) hydroquinone (80 ml) and 10% (w/v) silver nitrate (2.5 ml) during 40-45 min. The sections were then rinsed with tap water at 40° C. during at least 45 min, rinsed rapidly with distilled water and allowed to dry. They were dehydrated in ethanol and coverslipped.
# Mossy fiber sprouting was evaluated according to criteria previously described in dorsal hippocampus (Cavazos et al., 1991, J Neurosci 11:2795-2803), which are follows: 0—no granules between the tips and crest of the DG; 1—sparse granules in the supragranular region in a patchy distribution between the tips and crest of DG; 2—more numerous granules in a continuous distribution between the tips and crest of DG; 3—prominent granules in a continuous pattern between tips and crest, with occasional patches of confluent granules between tips and crest; 4—prominent granules that form a confluent dense laminar band between tips and crest and 5—confluent dense laminar band of granules that extends into the inner molecular layer.
# Li-Pilo SE = assay: Lithium-pilocarpine model (Example 2): quantification of cell densities; type: in vivo, rat; conditions: for number of neuronal cell bodies, Dorsal entorhinal, layer II / number of neuronal cell bodies, Dorsal entorhinal, layer III / number of neuronal cell bodies, Piriform, layer II, dorsal / number of neuronal cell bodies, Piriform, layer II, ventral / number of neuronal cell bodies, Piriform, layer III / number of neuronal cell bodies, Ventral entorhinal, layer II / number of neuronal cell bodies, Ventral entorhinal, layers III-IV / number of neuronal cell bodies, hippocampus CA1 area / number of neuronal cell bodies, hippocampus CA3 area / number of neuronal cell bodies, hippocampus Hilus: mean ± S.E.M.
# Protocol: Quantification of cell densities was performed at two times after SE: a first group was studied 14 days after SE and was composed by 7 DZP, 8 RWJ30, 11 RWJ60, 10 RWJ90, 8 RWJ120 and 8 control rats not subjected to SE. A second group used for the study of the latency to SRS was sacrificed either 8 weeks after the first SRS or at 5 months when no SRS could be seen in that delay and was composed by 7 DZP, 2 RWJ30, 3 RWJ60, 3 RWJ90, 4 RWJ120 rats. Animals were deeply anesthetized with 1.8 g/kg pentobarbital (Dolethal®, Vétoquinol, Lure, France). Brains were then removed and frozen. Serial 20 μm slices were cut in a cryostat, air-dried during several days before thionine staining. Quantification of cell densities was performed with a 10×10 boxes 1 cm^2 microscopic grid on coronal sections according to the stereotaxic coordinates of the rat brain atlas (Paxinos and Watson, 1986, The Rat Brain in Stereotaxic coordinates, 2nd ed. Academic Press, San Diego). The grid of counting was placed on a well-defined area of the cerebral structure of interest and counting was carried out with a microscopic enlargement of 200- or 400-fold defined for each single cerebral structure. Cell counts were performed twice on each side of three adjacent sections for each region by a single observer unaware of the animal's treatment. The number of cells obtained in the 12 counted fields in each cerebral structure was averaged. This procedure was used to minimize the potential errors that could result from double counting leading to overestimation of cell numbers. […] Counts involved only neurons with cell bodies larger than 10 μm. Cells with small cell bodies were considered as glial cells and were not counted.
# For neuronal damage, statistical analysis between groups was performed by means of a one-way analysis of variance followed by a post-hoc Scheffe's test using the Statview software.
# [1] = 14 days after SE, RWJ30 = 30 mg/kg
# [2] = 14 days after SE, RWJ60 = 60 mg/kg
# [3] = 14 days after SE, RWJ90 = 90 mg/kg
# [4] = 14 days after SE, RWJ120 = 120 mg/kg
# [5] = 14 days after SE, DZP 2.5 mg/kg i.m.
# [6] = DZP vs control rats, 14 days after SE
compound,measurement,setting,value
NC(=O)OC[C@@H](O)c1ccccc1Cl [test compound],"Timm score, upper blade of dentate gyrus (mean)","Li-pilo induced SE; 10 mg/kg, n=7",1.5±0.6
same,"Timm score, upper blade of dentate gyrus (mean)","Li-pilo induced SE; 30 mg/kg, n=10",2.6±1.0
same,Timm score,"Li-pilo induced SE; 60 mg/kg, subgroup with early SRS occurrence, n=6",1.8±0.6
same,Timm score,"Li-pilo induced SE; 60 mg/kg, subgroup with late occurrence or absence of SRS, n=5",1.2±0.6
same,"Timm score, upper blade of dentate gyrus (mean)","Li-pilo induced SE; 60 mg/kg, whole group, n=11",1.5±0.7
same,"damage, piriform cortex ventral layer II",Li-Pilo SE; 60 mg/kg,56%
same,"cell loss, piriform cortex layer III",Li-Pilo SE; 120 mg/kg,21%
same,"damage, piriform cortex ventral layer II",Li-Pilo SE; 120 mg/kg,9%
same,neuroprotection in CA3 pyramidal layer,"Li-Pilo SE; 120 mg/kg, difference with DZP not significant",tendency to a slight neuroprotection
same,neuroprotection in all layers of the dorsal entorhinal cortex,Li-Pilo SE; 30 and 60 mg/kg,did not afford any neuroprotection
same,"damage, piriform cortex dorsal layer II",Li-Pilo SE; 60-120 mg/kg,4-21%
same,"cell loss, piriform cortex layer III",Li-Pilo SE; 60 and 90 mg/kg (two lower of the 60-120 mg/kg doses),53-64%
same,"cell losses, ventral entorhinal cortex layers III/IV",Li-Pilo SE; 90 and 120 mg/kg,18-21%
same,"damage remaining, entorhinal cortex dorsal layers II and III/IV and ventral layer II",Li-Pilo SE; 90 and 120 mg/kg,4-14%
same,"number of neuronal cell bodies, Dorsal entorhinal, layer II",Li-Pilo SE; [1],23.4 ± 0.8
same,"number of neuronal cell bodies, Dorsal entorhinal, layer III",Li-Pilo SE; [1],21.5 ± 1.3
same,"number of neuronal cell bodies, Piriform, layer II, dorsal",Li-Pilo SE; [1],15.7 ± 3.6
same,"number of neuronal cell bodies, Piriform, layer II, ventral",Li-Pilo SE; [1],7.2 ± 4.6
same,"number of neuronal cell bodies, Piriform, layer III",Li-Pilo SE; [1],1.8 ± 2.3
same,"number of neuronal cell bodies, Ventral entorhinal, layer II",Li-Pilo SE; [1],22.7 ± 1.2
same,"number of neuronal cell bodies, Ventral entorhinal, layers III-IV",Li-Pilo SE; [1],13.2 ± 2.5
same,"number of neuronal cell bodies, hippocampus CA1 area",Li-Pilo SE; [1],39.3 ± 5.0°°
same,"number of neuronal cell bodies, hippocampus CA3 area",Li-Pilo SE; [1],35.7 ± 1.4
same,"number of neuronal cell bodies, hippocampus Hilus",Li-Pilo SE; [1],33.0 ± 4.0
same,"number of neuronal cell bodies, Dorsal entorhinal, layer II",Li-Pilo SE; [2],24.1 ± 0.7
same,"number of neuronal cell bodies, Dorsal entorhinal, layer III",Li-Pilo SE; [2],24.0 ± 0.4
same,"number of neuronal cell bodies, Piriform, layer II, dorsal",Li-Pilo SE; [2],28.9 ± 2.7°°
same,"number of neuronal cell bodies, Piriform, layer II, ventral",Li-Pilo SE; [2],14.8 ± 5.9
same,"number of neuronal cell bodies, Piriform, layer III",Li-Pilo SE; [2],6.9 ± 2.9
same,"number of neuronal cell bodies, Ventral entorhinal, layer II",Li-Pilo SE; [2],23.1 ± 0.7
same,"number of neuronal cell bodies, Ventral entorhinal, layers III-IV",Li-Pilo SE; [2],17.8 ± 2.8
same,"number of neuronal cell bodies, hippocampus CA1 area",Li-Pilo SE; [2],31.9 ± 4.4
same,"number of neuronal cell bodies, hippocampus CA3 area",Li-Pilo SE; [2],31.6 ± 2.1
same,"number of neuronal cell bodies, hippocampus Hilus",Li-Pilo SE; [2],32.8 ± 5.4
same,"number of neuronal cell bodies, Dorsal entorhinal, layer II",Li-Pilo SE; [3],26.3 ± 0.9
same,"number of neuronal cell bodies, Dorsal entorhinal, layer III",Li-Pilo SE; [3],25.4 ± 1.3
same,"number of neuronal cell bodies, Piriform, layer II, dorsal",Li-Pilo SE; [3],32.4 ± 1.3°
same,"number of neuronal cell bodies, Piriform, layer II, ventral",Li-Pilo SE; [3],18.4 ± 5.1
same,"number of neuronal cell bodies, Piriform, layer III",Li-Pilo SE; [3],9.0 ± 4.1
same,"number of neuronal cell bodies, Ventral entorhinal, layer II",Li-Pilo SE; [3],26.7 ± 0.9°°
same,"number of neuronal cell bodies, Ventral entorhinal, layers III-IV",Li-Pilo SE; [3],23.7 ± 1.7°
same,"number of neuronal cell bodies, hippocampus CA1 area",Li-Pilo SE; [3],47.7 ± 5.4°
same,"number of neuronal cell bodies, hippocampus CA3 area",Li-Pilo SE; [3],35.1 ± 1.0
same,"number of neuronal cell bodies, hippocampus Hilus",Li-Pilo SE; [3],37.5 ± 5.2**°
same,"number of neuronal cell bodies, Dorsal entorhinal, layer II",Li-Pilo SE; [4],27.3 ± 0.5
same,"number of neuronal cell bodies, Dorsal entorhinal, layer III",Li-Pilo SE; [4],26.4 ± 0.9
same,"number of neuronal cell bodies, Piriform, layer II, dorsal",Li-Pilo SE; [4],35.2 ± 1.3°
same,"number of neuronal cell bodies, Piriform, layer II, ventral",Li-Pilo SE; [4],30.5 ± 1.5°
same,"number of neuronal cell bodies, Piriform, layer III",Li-Pilo SE; [4],15.0 ± 2.5°°
same,"number of neuronal cell bodies, Ventral entorhinal, layer II",Li-Pilo SE; [4],25.1 ± 0.7
same,"number of neuronal cell bodies, Ventral entorhinal, layers III-IV",Li-Pilo SE; [4],24.5 ± 1.6°
same,"number of neuronal cell bodies, hippocampus CA1 area",Li-Pilo SE; [4],65.5 ± 2.9°
same,"number of neuronal cell bodies, hippocampus CA3 area",Li-Pilo SE; [4],39.8 ± 1.5
same,"number of neuronal cell bodies, hippocampus Hilus",Li-Pilo SE; [4],44.8 ± 3.6
same,"damage, hilus of dentate gyrus","Li-Pilo SE; RWJ30, 60 and 90 groups, 14 days after SE",62-66%
same,"cell loss, CA1 pyramidal layer","Li-Pilo SE; RWJ30, 60 or 90 rats, 14 days after SE",36-57%
same,neuroprotection in piriform cortex,Li-Pilo SE; RWJ30 dose,did not protect any layer
same,"cell loss, CA1 pyramidal layer","Li-Pilo SE; RWJ120, 14 days after SE",13%
same,"damage, hilus of dentate gyrus","Li-Pilo SE; RWJ120, 14 days after SE",54%
same,"damage, piriform cortex ventral layer II",Li-Pilo SE; second dose of 'the 60 and 120 mg/kg RWJ dose' as printed,45%
"CN1C(=O)CN=C(c2ccccc2)c2cc(Cl)ccc21 [DZP, diazepam, reference compound]","Timm score, upper blade of dentate gyrus (mean)","Li-pilo induced SE; DZP, n=9",2.8±0.8
same,"number of neuronal cell bodies, Dorsal entorhinal, layer II",Li-Pilo SE; [5],23.5 ± 0.7
same,"number of neuronal cell bodies, Dorsal entorhinal, layer III",Li-Pilo SE; [5],22.3 ± 0.5
same,"number of neuronal cell bodies, Piriform, layer II, dorsal",Li-Pilo SE; [5],12.6 ± 4.2
same,"number of neuronal cell bodies, Piriform, layer II, ventral",Li-Pilo SE; [5],3.6 ± 0.7
same,"number of neuronal cell bodies, Piriform, layer III",Li-Pilo SE; [5],1.2 ± 1.2
same,"number of neuronal cell bodies, Ventral entorhinal, layer II",Li-Pilo SE; [5],21.7 ± 1.3
same,"number of neuronal cell bodies, Ventral entorhinal, layers III-IV",Li-Pilo SE; [5],7.7 ± 2.3
same,"number of neuronal cell bodies, hippocampus CA1 area",Li-Pilo SE; [5],10.9 ± 1.9
same,"number of neuronal cell bodies, hippocampus CA3 area",Li-Pilo SE; [5],31.3 ± 2.9
same,"number of neuronal cell bodies, hippocampus Hilus",Li-Pilo SE; [5],33.5 ± 3.0
same,"damage, entorhinal cortex dorsal layers II and III/IV and ventral layer II",Li-Pilo SE; DZP group,18-24%
same,"cell loss, CA1 pyramidal cell layer",Li-Pilo SE; [6],85%
same,"cell loss, CA3",Li-Pilo SE; [6],40%
same,"cell loss, hilus of dentate gyrus",Li-Pilo SE; [6],66%
same,"cell loss, piriform cortex dorsal layer II",Li-Pilo SE; [6],66%
same,"cell loss, piriform cortex layer III",Li-Pilo SE; [6],94%
same,"cell loss, piriform cortex ventral layer II",Li-Pilo SE; [6],89%
same,"damage, dorsal entorhinal cortex layer II",Li-Pilo SE; [6],18%
same,"damage, dorsal entorhinal cortex layers III-IV",Li-Pilo SE; [6],24%
same,"damage, ventral entorhinal cortex layer II",Li-Pilo SE; [6],22%
same,"damage, ventral entorhinal cortex layers III/IV",Li-Pilo SE; [6],74%
